# Experimental data: article PMC9154752, “MHC class II molecules on pancreatic cancer cells indicate a potential for neo-antigen-based immunotherapy” (Oncoimmunology, 2022)
# Values joined by “and” are separate entries in the source; they are usually repeats but may differ in a detail not shown here. Equal values may be shown once. Read-outs that look alike come from different tables or passages of the source. Residues, ends and D or L forms follow the SMILES beside them. No end group written: not given here.
# T1: HLA-DP4 (Homo sapiens, UniProt P04440+P20036)
# T1 construct: expressed in transfected cells; host or cells: T2 lymphoblastoid cell line transfected with HLA-DP4 (T2-DP4), gift of Prof; Naoto Hirano, University of Toronto
# T1 sequence (P04440 30-258): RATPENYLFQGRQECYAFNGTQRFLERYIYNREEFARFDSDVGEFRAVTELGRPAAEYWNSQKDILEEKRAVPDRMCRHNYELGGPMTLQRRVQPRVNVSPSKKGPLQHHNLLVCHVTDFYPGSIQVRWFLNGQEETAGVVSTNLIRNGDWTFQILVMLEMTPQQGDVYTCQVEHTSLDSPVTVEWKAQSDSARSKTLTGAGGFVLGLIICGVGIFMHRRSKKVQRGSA
# T1 sequence (P20036 29-260): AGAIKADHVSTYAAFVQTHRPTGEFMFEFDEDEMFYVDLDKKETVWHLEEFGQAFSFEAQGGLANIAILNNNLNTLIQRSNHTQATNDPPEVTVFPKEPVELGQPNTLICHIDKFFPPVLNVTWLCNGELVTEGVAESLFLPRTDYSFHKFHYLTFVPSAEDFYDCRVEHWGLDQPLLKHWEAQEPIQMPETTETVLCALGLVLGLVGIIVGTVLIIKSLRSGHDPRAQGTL
# Assays:
# CD4+ T-cells = experiment: Immunogenicity T-cell assay (intracellular IFN-γ in peptide-stimulated CD4+ T-cells); assay type: cell-based, human; conditions: for Immunogenicity, % of responses: percentage of the 9 donors responding; for Immunogenicity, No of responses: responding donors of 9 HLA-DP4-positive donors, 3 weekly stimulations with mDC pulsed at 10 μg/mL, challenge with peptide-pulsed T2-DP4, intracellular IFN-γ by FACS
# Method: Immunogenicity of candidate HLA-DP4 neo-epitopes was performed using HLA-matched healthy donors’ autologous PBMCs. Briefly, mature DCs were pulsed with individual neo-epitopes at 10 μg/mL and co-cultured with autologous magnetic-sorted CD4+ T-cells (CD4 Microbeads Human, MACS Miltenyi; #130-045-101) in RPMI with 5% AB human serum (#H4522-100ML; Sigma-Aldrich), 10 units/mL penicillin–streptomycin, 2 mmol/L L-glutamine, 1% nonessential amino acid, IL-6 (#570802; BioLegend) (1000 U/mL) and IL-12 (#573002; BioLegend) (5 ng/mL). IL-2 (#589106; BioLegend) (30 U/mL) and IL-7 (#581902; BioLegend) (5 ng/mL) was added every 2 days. CD4+ T-cells underwent another two rounds of stimulation with peptide-pulsed mature DCs on day 7 and 14. Seven days after the third stimulation, CD4+ T-cells were challenged by overnight incubation with peptide-loaded T2-DP4 cells. As a control, CD4+ T-cells were incubated with T2-DP4 without peptide. Reactivity of the T cells was determined by intracellular IFN-γ (#502515; BioLegend) staining measured by flow cytometry. When Capan-1-derived neo-epitopes were tested, the peptide-stimulated CD4+ T-cells were challenged by overnight incubation with Capan-1 (MHC-II-negative), IFN-γ-treated Capan-1 cells (MHC-II-positive). Supernatants were collected and assessed for LDH (cytotoxicity), IFN-γ, granzyme B and granulysin. Where indicated, purified endotoxin-free anti-MHC class II (clone TÜ39; #555556; BD Bioscience, Chicago, IL, USA) antibodies were added to the co-cultures at 10 μg/mL.
# (§1) For cell surface labeling, cell suspensions were incubated with antibodies for 30 min at room temperature. For intracellular staining, cells were fixed and permeabilized using a Leucoperm kit (Bio-Rad; #BUF09C) in accordance with the manufacturer’s guidelines. Prior to intracellular staining with anti-IFN-γ, cells were incubated overnight in the presence of 5 microgram per mL brefeldin A (Sigma-Aldrich; #B6542-5 MG). Cell viability was analyzed by Ethidium homodimer 1 and calcein-AM double-staining using LIVE/DEAD® Viability/Cytotoxicity Kit, for mammalian cells according to the manufacturer’s instructions (#L3224; Invitrogen). Flow cytometry was done using a FACSCalibur (Becton Dickinson, Heidelberg, Germany) or BD LSRII (Becton Dickinson) flow cytometer. The data were processed with the CellQuest software (Becton Dickinson, Heidelberg, Germany) and analyzed with the WinMDi 2.9 (Purdue University, USA).
# PDAC cell lines = experiment: MHC-II surface expression on PDAC cell lines by flow cytometry; assay type: cell-based, human; conditions: 48 h; for MHC-II expression, agent alone / MHC-II expression, treatment together with IFN-γ: 8988 T, FA6 and MiaPaca-2 cells; for MHC-II expression, treatment together with IFN-γ: IFN-γ 50 ng/mL
# Method: All PDAC cell lines were stimulated with 50 ng/mL of the human recombinant IFN-γ (#570206; BioLegend) in T75 culture flasks for 48 h. As negative control, we co-incubated the cell lines in the medium alone. Where inhibitors were used, trametinib (#S2673; Selleckchem) or trichostatin A (TSA) (#T8552-1 MG; Sigma-Aldrich) at the indicated concentrations were added into the cultures with or without IFN-γ. After incubation, the cells were removed from the flasks by treatment with trypsin, cell suspensions were prepared and cells were stained with purified mouse IgG antibodies to CLIP (clone CerCLIP.1; #ab22606; Abcam, Cambridge, UK), and HLA-DR, DP, DQ (clone Tü39; #555556; BD) or isotype control (mouse IgG2a; #554645; BD) followed by Alexa Fluor 488-conjugated anti-mouse IgG, and APC-conjugated anti-PD-L1 (clone 29E.2A3; #329708; BioLegend) and processed for flow cytometry analysis.
# as §1
# MiaPaca-2 cells = experiment: CD4+ T-cell recognition of MiaPaca-2 cells (granzyme B ELISA); assay type: cell-based, human; conditions: MHC-II induced by IFN-γ in conjunction with trametinib; overnight, T-cell:tumor 5:1, granzyme B ELISA, 4 donors
# Method: Figure 8. Trametinib and TSA enhance responsiveness to IFN-γ in PDAC cells. (A) 8988 T, FA6 and MiaPaca-2 cells were treated with IFN-γ or left untreated, in the presence or absence of the MEK inhibitor, trametinib and/or histone deacetylase inhibitor TSA at the indicated concentrations for 48 hours. The cells were then collected, stained with anti-MHC-II antibodies and analyzed by flow cytometry. All flow cytometry data were gated on viable, singlets and MFI values for MHC-II were normalized to the untreated cells (none). Data are from three independent experiments. (B) Allogenic activated CD4+ T-cells from 4 healthy donors were incubated overnight with MiaPaca-2 cells (T-cell:tumor ratio 5:1). Where indicated, the cultures were treated with blocking antibodies or isotype control (IgG). […] All data were analyzed by one-way ANOVA; * P < 0.05; ** p < 0.01; *** p < 0.001; **** p < 0.0001. […]
# The cytokine IFN-γ and the cytolytic molecules granulysin and granzyme B were detected in supernatants of T-cell/tumor cell co-cultures using commercial ELISA kits (Human IFN gamma ELISA Ready-SET-Go!®, #88-7316-76, Affymetrix eBioscience; Human Granulysin DuoSet ELISA, #DY3138; and Human Granzyme B DuoSet ELISA, #DY2906-05, R&D Systems) in 96-well microtiter plates (Nunc Maxisorp, Rochester, NY, USA) following the manufacturer’s instructions.
# HLA-DP4 = target: T1, HLA-DP4; experiment: Cell-based competitive MHC-II binding assay with T2-DP4 cells
# [1] = T2-DP4 cells, overnight 37°C, competitor from 80 µM in 8 serial dilution steps, 500 nM FITC-labeled Oxy271-287, flow cytometry, n = 3 per peptide, read-out: IC50 (µM) Binding Assay
molecule,measurement,setting,value
CSCC[C@H](NC(=O)[C@H](CCC(N)=O)NC(=O)[C@@H]1CCCN1C(=O)[C@@H](NC(=O)[C@H](CC(=O)O)NC(=O)[C@@H](N)CS)C(C)C)C(=O)N[C@@H](CC(C)C)C(=O)N[C@@H](CCCCN)C(=O)N[C@@H](CC(C)C)C(=O)N[C@@H](C)C(=O)N[C@@H](CS)C(=O)N[C@@H](Cc1ccc(O)cc1)C(=O)N[C@@H](Cc1ccc(O)cc1)C(=O)N[C@@H](CCC(=O)O)C(=O)N[C@@H](Cc1ccccc1)C(=O)O [Peptide 94] (H-CDVPQMLKLACYYEF-OH; N-terminus and C-terminus assumed),"Immunogenicity, % of responses",CD4+ T-cells,0%
same,"Immunogenicity, No of responses",CD4+ T-cells,0 of 9
"CC(/C=C/C(=O)NO)=C\[C@@H](C)C(=O)c1ccc(N(C)C)cc1 [TSA, trichostatin A]","MHC-II expression, agent alone",PDAC cell lines,did not induce expression of MHC-II
same,"MHC-II expression, treatment together with IFN-γ",PDAC cell lines,"enhanced MHC-II expression in FA6 cells, but not in 8988 T and MiaPaca-2 cells"
CC(=O)Nc1cccc(-n2c(=O)n(C3CC3)c(=O)c3c(Nc4ccc(I)cc4F)n(C)c(=O)c(C)c32)c1 [trametinib],"MHC-II expression, agent alone",PDAC cell lines,induced a slight increase in the expression of MHC-II
same,"MHC-II expression, treatment together with IFN-γ",PDAC cell lines,increased MHC-II expression compared with IFN-γ alone
same,Susceptibility of MiaPaca-2 cells to CD4+ T-cell recognition,MiaPaca-2 cells,rendered these cells susceptible to CD4+ T-cells recognition
ALLKFWEDEGFVREE [Peptide 101],"Immunogenicity, % of responses",CD4+ T-cells,44%
same,"Immunogenicity, No of responses",CD4+ T-cells,4 of 9
FESEKYQDILMWNYR [Peptide 73],IC50,HLA-DP4; [1],15.9 µM
"FNNFTVSFWLRVPKVSASHLE [TT 947-967, reference compound]",IC50,HLA-DP4,3.05 µM
FQHLHRLTYLKLWYN [Peptide 80],IC50,HLA-DP4; [1],27.8 µM
GKGLVYAQYLPKEQY [Peptide 105],IC50,HLA-DP4; [1],47.9 µM
GLQTLYSAALYHLTT [Peptide 93],IC50,HLA-DP4; [1],21.6 µM
HLVAFGISCFLGSGL [Peptide 77],Immunogenicity (in words),CD4+ T-cells; 9 HLA-DP4-positive donors,most immunogenic
same,"Immunogenicity, % of responses",CD4+ T-cells,88%
same,"Immunogenicity, No of responses",CD4+ T-cells,8 of 9
HTCVKFYIEGFEPGK [Peptide 74],"Immunogenicity, % of responses",CD4+ T-cells,11%
same,"Immunogenicity, No of responses",CD4+ T-cells,one out of nine and 1 of 9
IGQVAAGAFANLRAL [Peptide 99],IC50,HLA-DP4; [1],27.9 µM
IVKGRFGEVWRGRWR [Peptide 103],"Immunogenicity, % of responses",CD4+ T-cells,22%
same,"Immunogenicity, No of responses",CD4+ T-cells,2 of 9
IYSLRNTEFKSALRR [Peptide 83],IC50,HLA-DP4; [1],27.7 µM
KFESEKYQDILMWNY [Peptide 71],IC50,HLA-DP4; [1],28.9 µM
LKFWEDEGFVREEED [Peptide 100],"Immunogenicity, % of responses",CD4+ T-cells,22%
same,"Immunogenicity, No of responses",CD4+ T-cells,2 of 9
LLKFWEDEGFVREEE [Peptide 98],"Immunogenicity, % of responses",CD4+ T-cells,11%
same,"Immunogenicity, No of responses",CD4+ T-cells,one out of nine and 1 of 9
MIYSLRNTEFKSALR [Peptide 84],IC50,HLA-DP4; [1],24.5 µM
PMIYSLRNTEFKSAL [Peptide 92],IC50,HLA-DP4; [1],6.36 µM
PRGKGLVYAQYLPKE [Peptide 104],IC50,HLA-DP4; [1],38.2 µM
QGKYKAFSTCAFHLS [Peptide 70],IC50,HLA-DP4; [1],31.5 µM
QHLHRLTYLKLWYNH [Peptide 82],IC50,HLA-DP4; [1],18.6 µM
QPEGPYRVAGYSYVA [Peptide 87],IC50,HLA-DP4; [1],31.9 µM
RNTGLQTLYSAALYH [Peptide 97],IC50,HLA-DP4; [1],22.6 µM
RNTIGQVAAGAFANL [Peptide 86],IC50,HLA-DP4; [1],37 µM
SFQHLHRLTYLKLWY [Peptide 78],IC50,HLA-DP4; [1],25.8 µM
SIDRTVMYYGLLFIQ [Peptide 88],IC50,HLA-DP4; [1],71 µM
TAFTFQSSKEKLDVG [Peptide 109],"Immunogenicity, % of responses",CD4+ T-cells,11%
same,"Immunogenicity, No of responses",CD4+ T-cells,one out of nine and 1 of 9
TDLHMLGAPVWAMLF [Peptide 96],IC50,HLA-DP4; [1],10.9 µM
TFRSPQKFGALIFLV [Peptide 91],IC50,HLA-DP4; [1],24.8 µM
TGLQTLYSAALYHLT [Peptide 102],IC50,HLA-DP4; [1],14.3 µM
YKAFSTCAFHLSVVS [Peptide 69],Binding to HLA-DP4 in cell-based binding assay (in words),HLA-DP4; Peptides with IC50 < 200 µM were considered binders,not to bind
"IFN-γ: human recombinant IFN-γ (#570206; BioLegend) (protein, UniProt P01579 24-161, looked up) Interferon gamma: QDPYVKEAENLKKYFNAGHSDVADNGTLFLGILKNWKEESDRKIMQSQIVSFYFKLFKNFKDDQSIQKSVETIKEDMNVKFFNSNKKKRDDFEKLTNYSVTDLNVQRKAIHELIQVMAELSPAAKTGKRKRSQMLFRG",MHC class II surface expression,"PDAC cell lines; 14 PDAC and circulating tumor cell lines, 50 ng/mL",upregulated in these cell lines and de novo expression was observed in six additional cell lines
same,"MHC-II expression, agent alone",PDAC cell lines,induced low expression of MHC-II
